Data set [1] concerns the target T1, Alpha-1A adrenergic receptor (Rattus norvegicus, UniProt P43140).
T1 sequence (P43140 whole entry): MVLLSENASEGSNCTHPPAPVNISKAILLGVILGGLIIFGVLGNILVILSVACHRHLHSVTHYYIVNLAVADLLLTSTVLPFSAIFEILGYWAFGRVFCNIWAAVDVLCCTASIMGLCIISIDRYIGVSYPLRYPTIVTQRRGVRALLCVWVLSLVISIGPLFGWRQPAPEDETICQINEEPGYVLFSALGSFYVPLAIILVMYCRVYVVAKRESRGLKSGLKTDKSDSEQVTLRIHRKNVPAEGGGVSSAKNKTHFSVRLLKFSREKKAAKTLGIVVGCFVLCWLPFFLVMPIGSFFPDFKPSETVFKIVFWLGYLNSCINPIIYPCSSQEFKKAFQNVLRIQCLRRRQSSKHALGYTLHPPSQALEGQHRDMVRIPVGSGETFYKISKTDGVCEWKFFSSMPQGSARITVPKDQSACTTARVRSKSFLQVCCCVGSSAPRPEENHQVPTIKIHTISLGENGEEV
In words: DRUGMATRIX: Alpha-1A adrenergic receptor radioligand binding (ligand: prazosin). It is filed as cell membranes, Wistar, Submaxillary gland, Membrane. To be noted: Not Active = under 50% inhibition at 10 µM.

The next data set has as its target T2, Cytochrome P450 1A2 (Homo sapiens, UniProt P05177). Also: in other assays of this panel Not Active means under 50% inhibition at 10 µM.
T2 sequence (P05177 whole entry): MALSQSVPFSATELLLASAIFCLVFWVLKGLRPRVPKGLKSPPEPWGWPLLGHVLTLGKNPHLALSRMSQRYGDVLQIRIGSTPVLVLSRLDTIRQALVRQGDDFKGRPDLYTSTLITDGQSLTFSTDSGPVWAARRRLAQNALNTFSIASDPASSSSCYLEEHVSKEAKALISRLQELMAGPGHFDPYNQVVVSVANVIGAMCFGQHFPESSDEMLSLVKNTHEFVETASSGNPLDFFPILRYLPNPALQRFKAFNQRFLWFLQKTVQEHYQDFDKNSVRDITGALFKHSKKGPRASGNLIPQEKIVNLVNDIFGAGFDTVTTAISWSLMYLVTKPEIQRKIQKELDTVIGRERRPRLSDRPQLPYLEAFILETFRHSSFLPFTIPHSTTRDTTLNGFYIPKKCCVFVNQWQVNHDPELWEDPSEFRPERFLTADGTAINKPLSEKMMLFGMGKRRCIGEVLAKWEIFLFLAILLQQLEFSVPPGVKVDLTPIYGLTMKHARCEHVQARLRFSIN
To be noted: bti-tn-5b1-4.

The target in data set [2] is T3, Muscarinic acetylcholine receptor M5 (Homo sapiens, UniProt P08912). Also: in other assays of this panel Not Active means under 50% inhibition at 10 µM.
T3 sequence (P08912 whole entry): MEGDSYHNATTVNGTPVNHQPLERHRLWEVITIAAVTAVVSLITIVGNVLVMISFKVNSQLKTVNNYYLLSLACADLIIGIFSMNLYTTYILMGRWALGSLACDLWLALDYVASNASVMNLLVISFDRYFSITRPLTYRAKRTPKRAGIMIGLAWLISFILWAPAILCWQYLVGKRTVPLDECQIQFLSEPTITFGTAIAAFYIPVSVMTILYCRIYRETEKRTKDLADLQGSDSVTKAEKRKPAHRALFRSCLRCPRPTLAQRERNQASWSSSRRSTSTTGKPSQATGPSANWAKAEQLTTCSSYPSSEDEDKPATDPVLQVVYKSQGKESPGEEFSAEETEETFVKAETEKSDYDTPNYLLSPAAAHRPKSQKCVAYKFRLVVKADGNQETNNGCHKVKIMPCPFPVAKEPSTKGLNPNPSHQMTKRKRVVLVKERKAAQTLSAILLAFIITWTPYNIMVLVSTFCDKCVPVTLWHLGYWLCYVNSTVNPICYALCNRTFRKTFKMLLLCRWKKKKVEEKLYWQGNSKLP
It counts as cell membranes, CHO-K1, Membrane. As to conditions: cho-k1.

For data set [3], the target named is T4, Muscarinic acetylcholine receptor M2 (Homo sapiens, UniProt P08172). Also: in other assays of this panel Not Active means under 50% inhibition at 10 µM.
T4 sequence (P08172 whole entry): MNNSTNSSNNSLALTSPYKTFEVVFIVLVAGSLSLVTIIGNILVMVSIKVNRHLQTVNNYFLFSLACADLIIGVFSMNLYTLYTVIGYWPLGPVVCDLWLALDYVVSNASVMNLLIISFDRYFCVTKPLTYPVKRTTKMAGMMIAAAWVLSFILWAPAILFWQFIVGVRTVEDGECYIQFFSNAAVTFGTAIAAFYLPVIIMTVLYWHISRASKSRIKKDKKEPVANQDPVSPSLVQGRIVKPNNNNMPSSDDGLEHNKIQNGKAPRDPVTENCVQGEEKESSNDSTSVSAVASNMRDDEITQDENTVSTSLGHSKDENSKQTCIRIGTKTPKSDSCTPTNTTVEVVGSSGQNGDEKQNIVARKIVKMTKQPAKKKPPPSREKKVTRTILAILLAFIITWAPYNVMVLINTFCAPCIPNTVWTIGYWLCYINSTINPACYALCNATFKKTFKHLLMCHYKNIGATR
It is filed as cell membranes, CHO-K1, Membrane. To be noted: cho-k1.

The target of data set [4] is Mitogen-activated protein kinase 1 (Homo sapiens, UniProt P28482). Kind of data set: DRUGMATRIX: Protein Serine/Threonine Kinase, ERK2 enzyme inhibition (substrate: Myelin Basic Protein). The arrangement: species or system Escherichia coli. As to conditions: Not Active = under 50% inhibition at 10 µM.
Chain of Mitogen-activated protein kinase 1 (P28482 whole entry): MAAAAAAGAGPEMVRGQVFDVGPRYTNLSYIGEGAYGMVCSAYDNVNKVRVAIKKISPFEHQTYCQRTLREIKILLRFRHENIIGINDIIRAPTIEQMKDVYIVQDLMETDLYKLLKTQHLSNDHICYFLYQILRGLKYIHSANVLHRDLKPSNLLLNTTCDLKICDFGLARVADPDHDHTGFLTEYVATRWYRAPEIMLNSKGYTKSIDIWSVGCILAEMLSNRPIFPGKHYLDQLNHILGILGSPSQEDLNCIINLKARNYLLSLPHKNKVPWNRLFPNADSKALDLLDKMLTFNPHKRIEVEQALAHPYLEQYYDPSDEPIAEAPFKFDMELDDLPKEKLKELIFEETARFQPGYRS
The next data set addresses T5, Estrogen receptor (Homo sapiens, UniProt P03372).
T5 sequence (P03372 whole entry): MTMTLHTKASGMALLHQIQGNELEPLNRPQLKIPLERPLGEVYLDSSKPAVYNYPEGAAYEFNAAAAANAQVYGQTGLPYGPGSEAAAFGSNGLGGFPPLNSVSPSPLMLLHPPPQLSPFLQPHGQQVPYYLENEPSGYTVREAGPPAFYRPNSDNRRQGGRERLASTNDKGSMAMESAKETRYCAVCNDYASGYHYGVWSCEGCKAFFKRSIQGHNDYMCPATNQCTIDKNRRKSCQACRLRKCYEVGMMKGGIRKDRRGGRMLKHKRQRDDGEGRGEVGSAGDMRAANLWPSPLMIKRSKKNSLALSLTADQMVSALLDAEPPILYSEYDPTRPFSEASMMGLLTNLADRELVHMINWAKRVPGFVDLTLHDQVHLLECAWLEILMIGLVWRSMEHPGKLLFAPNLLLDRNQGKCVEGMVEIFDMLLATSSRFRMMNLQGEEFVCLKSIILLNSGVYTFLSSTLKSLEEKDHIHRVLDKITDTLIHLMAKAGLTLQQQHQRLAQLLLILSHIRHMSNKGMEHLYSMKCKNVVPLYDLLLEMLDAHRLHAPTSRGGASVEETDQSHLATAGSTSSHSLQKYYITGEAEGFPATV
As to conditions: sf9.

Where a SMILES comes first, the peptide text is derived from it. Bridges are numbered along the chain shown (N, C = ends). [ ]: non-standard residue; d: D form. The star is where a group is joined. Ileψ(thiazoline)Cys = CC[C@H](C)[C@H](N)C1=N[C@H](C(=O)*)CS1; dOrn = NCCC[C@@H](N)C(=O)O

As to `CCOC(=O)OC(C)OC1=C(C(=O)Nc2ccccn2)N(C)S(=O)(=O)c2ccccc21` (centres undefined) [AMPIROXICAM], the IC50 result (in data set [1]; against Cytochrome P450 1A2; in data set [2]; in data set [3]; in data set [4]; on Estrogen receptor) was “Not Active” in each case. Further, the Ki entry on Cytochrome P450 1A2 was “Not Active”.
Take `N#C[C@H](O[C@@H]1O[C@H](CO[C@@H]2O[C@H](CO)[C@@H](O)[C@H](O)[C@H]2O)[C@@H](O)[C@H](O)[C@H]1O)c1ccccc1` [AMYGDALIN]: the IC50 entry (in data set [1]; against Cytochrome P450 1A2; in data set [2]; in data set [3]; in data set [4]; at Estrogen receptor) was “Not Active” in each case. In addition, the Ki result on Cytochrome P450 1A2 is reported as “Not Active”.
In the case of `C=C1[C@@H]2CCC3[C@@](CC[C@@H]4[C@H](C(=O)O)C[C@@H](O[C@@H]5O[C@H](CO)[C@@H](OS(=O)(=O)[O-])[C@H](OS(=O)(=O)[O-])[C@H]5OC(=O)CC(C)C)C[C@@]34C)(C2)[C@@H]1O.[K+].[K+]` (some centres undefined) [ATRACTYLOSIDE], the IC50 entry (in data set [1]; against Cytochrome P450 1A2; in data set [2]; in data set [3]; in data set [4]; on Estrogen receptor) was “Not Active” each time. In addition, on Cytochrome P450 1A2, the Ki result was “Not Active”.
For `Cn1cnc([N+](=O)[O-])c1Sc1ncnc2nc[nH]c12` [AZATHIOPRINE], the IC50 entry (in data set [1]; against Cytochrome P450 1A2; in data set [2]; in data set [3]; in data set [4]; on Estrogen receptor) was “Not Active” throughout. Moreover, the Ki entry at Cytochrome P450 1A2 is given as “Not Active”.
For the compound `CC1(C)S[C@@H]2[C@H](NC(=O)[C@H](NC(=O)N3CCNC3=O)c3ccccc3)C(=O)N2[C@H]1C(=O)O` [AZLOCILLIN], the IC50 entry (in data set [1]; on Cytochrome P450 1A2; in data set [2]; in data set [3]; in data set [4]; against Estrogen receptor) was “Not Active” each time. Besides, the Ki result on Cytochrome P450 1A2 is recorded as “Not Active”.
With `CC[C@H](C)[C@H](N)C1=N[C@H](C(=O)N[C@@H](CC(C)C)C(=O)N[C@H](CCC(=O)O)C(=O)N[C@H](C(=O)N[C@H]2CCCCNC(=O)[C@H](CC(N)=O)NC(=O)[C@@H](CC(=O)O)NC(=O)[C@H](Cc3cnc[nH]3)NC(=O)[C@@H](Cc3ccccc3)NC(=O)[C@H]([C@@H](C)CC)NC(=O)[C@@H](CCCN)NC2=O)[C@@H](C)CC)CS1` [BACITRACIN] ({Ileψ(thiazoline)Cys}-L[dE]IK[dOrn]I[dF]H[dD]N; lactam 4-C), the IC50 result (in data set [1]; on Cytochrome P450 1A2; in data set [2]; in data set [3]; in data set [4]; against Estrogen receptor) was “Not Active” in each case. Also, on Cytochrome P450 1A2, the Ki entry is given as “Not Active”.
`OCc1ccccc1` [BENZYL ALCOHOL]: the IC50 result (in data set [1]; on Cytochrome P450 1A2; in data set [2]; in data set [3]; in data set [4]; at Estrogen receptor) was “Not Active” in each case. Further, the Ki entry at Cytochrome P450 1A2 was “Not Active”.
For `CC(C)(Oc1ccc(CCNC(=O)c2ccc(Cl)cc2)cc1)C(=O)O` [BEZAFIBRATE], the IC50 result (in data set [1]; against Cytochrome P450 1A2; in data set [2]; in data set [3]; in data set [4]; against Estrogen receptor) was “Not Active” in each case. Further, the Ki entry at Cytochrome P450 1A2 was “Not Active”.
For the compound `CCCC[C@@H](CC)COC(=O)c1ccccc1C(=O)OC[C@@H](CC)CCCC` [BIS(2-ETHYLHEXYL)PHTHALATE], the IC50 entry (in data set [1]; against Cytochrome P450 1A2; in data set [2]; in data set [3]; in data set [4]; at Estrogen receptor) was “Not Active” in each case. For the same compound, the Ki result on Cytochrome P450 1A2 was “Not Active”.
In the case of `Oc1c(Cl)cc(Cl)cc1Sc1cc(Cl)cc(Cl)c1O` [BITHIONOL], the IC50 entry in data set [1] is “Not Active”; against Cytochrome P450 1A2, “Not Active”; in data set [2] it was “Not Active”; in data set [3] it was “Not Active”; in data set [4] (read-out: IC50) it was 385 nM; on Estrogen receptor, “Not Active”. The Ki entry on Cytochrome P450 1A2 is “Not Active”.
Take `Brc1ccccc1` [BROMOBENZENE]: the IC50 entry (in data set [1]; against Cytochrome P450 1A2; in data set [2]; in data set [3]; in data set [4]; on Estrogen receptor) was “Not Active” in each case. In addition, the Ki entry on Cytochrome P450 1A2 is “Not Active”.
`CC[C@@]1(O)C(=O)OCc2c1cc1n(c2=O)Cc2cc3ccccc3nc2-1` [CAMPTOTHECIN]: the IC50 result (in data set [1]; against Cytochrome P450 1A2; in data set [2]; in data set [3]; in data set [4]; against Estrogen receptor) was “Not Active” each time. In addition, the Ki result on Cytochrome P450 1A2 is reported as “Not Active”.

The record behind these values is ChEMBL document CHEMBL1909046, “DrugMatrix in vitro pharmacology data”.
